In US9655882B2, “Compositions and methods for treatment of neurodegenerative disease” (THE JOHNS HOPKINS UNIVERSITY, priority 2008, dated 2017):
Like-named read-outs stand apart in the source and are kept apart here.

Tests used:
mouse RGCs [1] = type: in vivo; conditions: for RGC loss / RGC survival after optic nerve injury: intravitreal injection of 1 μl (2 mM) every three days for nine days
Description: . Mouse optic nerve crush is a well-established animal model in mimicking the pathological conditions in which the primary injury sites are focal to RGC axons such as in glaucoma, AION, traumatic optic neuropathy, and multiple sclerosis. Specific RGC loss following nerve crush, which largely spares displaced amacrine cells in GCL, is thought to result from incomplete understood mechanism that implicates the blockage of retrograde axonal transport and subsequently impaired neurotrophin signaling, and excitotoxicity etc. In addition, mouse optic nerve crush has been successfully employed as an experimental system to identify the genetic nature controlling RGC susceptibility to axon injury.
During the procedure, the optic nerve was carefully exposed through a post-orbital approach, and crushed with a self-closing forceps for three seconds. […] Since RGCs populate ˜60% cells in rodent GCL, the estimated surviving RGC is ˜57.3%. […]. […]

mouse RGCs [2] = test: RGC survival in purified primary mouse RGC culture (high-content screening, Calcein AM/Hoechst/Ethidium Homodimer-1); type: cell-based
Description: Purified mouse RGCs were grown in Neurobasal, 2% B27, 1% N2 supplement, 0.5 mM glutamine. […] Increasing concentrations of kinase inhibitors were present in the media as indicated. Viability and neurite growth of RGCs were assayed by a combined staining with Calcein AM, Hoechst, and Ethidium Homodimer-1. The images were taken and processed by Cellomics Kineticscan.
RGC survival and neurite growth were quantitatively measured as average surviving RGCs/field (4 mm^2) (FIG. 2C), total neurite length per RGC (FIG. 2D), average neurite length per RGC (FIG. 2E), and total neurite count per RGC (FIG. 2F).

mouse RGCs [3] = test: RGC neurite growth in purified primary mouse RGC culture (high-content screening); type: cell-based; conditions: Example 4, at 100 nM
Description: Purified mouse RGCs were grown in Neurobasal, 2% B27, 1% N2 supplement, 0.5 mM glutamine. 2 μM forskolin was present in all the conditions except vehicle control with DMSO (dark bar), for 60 hours. Increasing concentrations of kinase inhibitors were present in the media as indicated. Viability and neurite growth of RGCs were assayed by a combined staining with Calcein AM, Hoechst, and Ethidium Homodimer-1. The images were taken and processed by Cellomics Kineticscan. […] Error bars: S.E.M.
RGC survival and neurite growth were quantitatively measured as average surviving RGCs/field (4 mm^2) (FIG. 2C), total neurite length per RGC (FIG. 2D), average neurite length per RGC (FIG. 2E), and total neurite count per RGC (FIG. 2F). Error bars: S.E.M.
To enhance the assay sensitivity, the culture condition is defined to support a baseline level of RGC viability (20˜60% surviving RGCs after three days in culture) and neurite growth by 2.5 μM forskolin.

activated Caspase-3 = test: Activated Caspase-3 positive (apoptotic) cells in GCL after mouse optic nerve crush; type: in vivo; conditions: three days following nerve crush, systemic treatment
Description: Apoptosis has been identified as the major form of RGC death in many, if not all, degenerative conditions targeting their axons, and in mouse optic nerve.

RGC = RGC survival under Flt3 ligand with or without sunitinib; type: cell-based
mouse RGCs [4] = test: Excitotoxicity (glutamate, KA, NMDA, AMPA) in purified mouse RGCs in vitro; type: cell-based; conditions: 1 μM sunitinib
Description: Neuronal toxicity of excitatory amino acid glutamate and its analogue NMDA is implicated in a number of neurodegenerative conditions that involve RGC, such as glaucoma, optic neuropathies of trauma and other origins, and that affect other CNS structures, such as Alzheimer's disease, Parkinson's disease, Huntington's disease, stroke, and […] (ALS). […] RGC viability was measured and the percentage of RGC loss due to the excitotoxicity was calculated.

[5] = test system: Mouse retinal ganglion cells (RGCs); test: Live-dead assay of cultured mouse RGCs (Cellomics VTI HCS reader), live cell count; conditions: approximately 2 days culture, various concentrations, FIG. 4
FLT3 = biological target: T1, FLT3 (Homo sapiens, UniProt P36888); conditions: cited from earlier work
T1 sequence (P36888 27-993): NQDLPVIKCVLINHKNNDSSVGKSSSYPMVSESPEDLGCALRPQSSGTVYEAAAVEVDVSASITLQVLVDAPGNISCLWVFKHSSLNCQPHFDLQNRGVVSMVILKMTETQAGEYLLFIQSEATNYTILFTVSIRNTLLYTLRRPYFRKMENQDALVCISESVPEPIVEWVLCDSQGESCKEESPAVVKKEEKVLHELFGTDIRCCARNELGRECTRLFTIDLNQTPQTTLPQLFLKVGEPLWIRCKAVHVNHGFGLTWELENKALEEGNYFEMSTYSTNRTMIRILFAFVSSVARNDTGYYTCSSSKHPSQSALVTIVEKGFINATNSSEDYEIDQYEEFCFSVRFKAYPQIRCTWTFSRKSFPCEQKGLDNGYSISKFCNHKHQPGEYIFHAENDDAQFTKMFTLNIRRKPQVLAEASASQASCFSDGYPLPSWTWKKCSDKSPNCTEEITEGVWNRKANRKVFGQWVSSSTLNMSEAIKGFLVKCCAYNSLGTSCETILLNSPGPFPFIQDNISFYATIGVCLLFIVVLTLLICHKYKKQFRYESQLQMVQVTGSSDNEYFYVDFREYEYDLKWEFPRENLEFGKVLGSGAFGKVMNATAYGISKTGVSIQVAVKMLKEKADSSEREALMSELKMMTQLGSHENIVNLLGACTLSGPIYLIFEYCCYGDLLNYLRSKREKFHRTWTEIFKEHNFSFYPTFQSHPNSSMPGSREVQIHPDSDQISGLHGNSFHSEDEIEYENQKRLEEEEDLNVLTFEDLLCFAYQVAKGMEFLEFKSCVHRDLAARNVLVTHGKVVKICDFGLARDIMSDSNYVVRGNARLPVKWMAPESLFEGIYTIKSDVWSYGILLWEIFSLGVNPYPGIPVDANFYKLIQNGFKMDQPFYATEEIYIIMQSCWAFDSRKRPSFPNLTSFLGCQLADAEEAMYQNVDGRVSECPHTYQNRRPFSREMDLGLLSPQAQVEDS

Molecule: O=C(NC1CCOCC1)c1ccc(-c2cc(-c3c[nH]nc3-c3ccccn3)ccn2)cc1 [TGF-beta receptor inhibitor]
- RGC loss / RGC survival after optic nerve injury (mouse RGCs [1]): capable of reducing RGC loss
- RGC loss / RGC survival after optic nerve injury (mouse RGCs [1]; listed as drawing 10): increased RGC survival

Molecule: CNC(=O)c1cc(Oc2ccc(NC(=O)Nc3ccc(Cl)c(C(F)(F)F)c3)cc2)ccn1 [Sorafenib]
- pro-surviving activity on RGCs (mouse RGCs [2]; Example 4, clinical protein kinase inhibitors, purified primary mouse RGC culture): lacking strong protective activity to RGC
- RGC neurite growth (mouse RGCs [3]): stimulate neurite growth as potently as sunitinib (1 μM)

Molecule: CCN(CC)CCNC(=O)c1c(C)[nH]c(/C=C2\C(=O)Nc3ccc(F)cc32)c1C [sunitinib, N-[2-(diethylamino)ethyl]-5-[(Z)-(5-fluoro-1,2-dihydro-2-oxo-3H-indol-3-ylidine)methyl]-2,4-dimethyl-1H-pyrrole-3-carboxamide]
- toxicity to RGC in vitro (mouse RGCs [2]; concentrations higher than 1 μM): higher concentrations exhibit toxicity
- projected surviving RGCs (mouse RGCs [1]; mouse, in vivo): 79.2%
- appearance of retina (mouse RGCs [1]; mouse, in vivo, 15 mg/kg/day): obvious yellow appearance
- cells in GCL survived (mouse RGCs [1]; systemic administration of 5 mg/kg/day for ten days after optic nerve crush): ~88.5%
- reduction of number of apoptotic cells in GCL (activated Caspase-3): 38.9%
- antagonism of detrimental effects of Flt31 on RGC (RGC; Flt31 at 16 ng/ml, sunitinib present in the media): 1.4 fold
- reduction of RGC loss caused by AMPA (mouse RGCs [4]; 100 μM AMPA): 4 folds
- reduction of RGC loss caused by NMDA (mouse RGCs [4]; 100 μM NMDA): ~10 folds

Molecule: CN(C)S(=O)(=O)c1ccc2c(c1)/C(=C/c1cc3c([nH]1)CCCC3)C(=O)N2 [SU6656, (3Z)—N,N-dimethyl-2-oxo-3-(4,5,6,7-tetrahydro-1H-indol-2-ylmethylidene)-1H-indole-5-sulfonamide]
- RGC survival (live cell count) [5]: significantly increased RGC survival

B1: Flt31: Flt3 ligand, RTK ligand (protein, UniProt P49771 27-235, looked up)
Fms-related tyrosine kinase 3 …: TQDCSFQHSPISSDFAVKIRELSDYLLQDYPVTVASNLQDEELCGGLWRLVLAQRWMERLKTVAGSKMQGLLERVNTEIHFVTKCAFQPPPSCLRFVQTNISRLLQETSEQLVALKPWITRQNFSRCLELQCQPDSSTLPPPWSPRPLEATAPTAPQPPLLLLLLLPVGLLLLAAAWCLHWQRTRRRTPRPGEQVPPVPSPQDLLLVEH
- EC50 (FLT3): 4 ng/mL
- effect on RGC survival (RGC; Flt31 at 4 ng/ml): did not appear to affect RGC survival
- compromise of the pro-surviving activity of sunitinib (RGC; Flt31 at 4 ng/ml with sunitinib): 36.6%
- reduction of RGC survival (RGC; Flt31 at 16 ng/ml): 38.3%
